Data reported in PubChem BioAssay AID2060907 (Molecular Pharmacology Branch, DTP, NCI, 2025).

System: 388556-164-R-J1-PDC complex spheroid viability
Experiment: Anticancer human tumor 388556-164-R-J1-PDC patient-derived colon adenocarcinoma cell line growth inhibition [RAS]
Conditions: for IC50: curve of first compound; for viability, T/C: stronger effect = lower value
In short: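 Multi-cell-type spheroids: tumor cells plus HUVEC endothelial cells and mesenchymal stem cells. RAS-pathway inhibitors were combined with targeted agents, each dosed in half-log steps down from clinical Cmax, or from 10 microM when Cmax was unknown.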
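Also: spheroids exposed to compound for 7 days before readout.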
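For viability, T/C in this document: 100% = DMSO vehicle control luminescence.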

O=C(c1ccc(F)c(F)c1Nc1ccc(I)cc1F)N1CC(O)([C@@H]2CCCCN2)C1 + C=CC(=O)N1CCN(c2nc(OCC3CCCN3C)nc3c(F)c(-c4nc(N)cc(C)c4C(F)(F)F)c(Cl)cc23)C(C)C1
IC50 (second compound 0.00316 µM): 0.129 µM | IC50 (second compound 0.01 µM): 0.158 µM | IC50 (second compound 0.0316 µM): 0.159 µM | IC50 (second compound 0.1 µM): 0.191 µM | IC50 (second compound 0.316 µM): 0.15 µM | IC50 (second compound 1 µM): 0.144 µM | viability, T/C (second compound 0.00316 µM, first compound 0.00316 µM): 97.8% | viability, T/C (second compound 0.00316 µM, first compound 0.01 µM): 90.8% | viability, T/C (second compound 0.00316 µM, first compound 0.0316 µM): 83.7% | viability, T/C (second compound 0.00316 µM, first compound 0.1 µM): 53.5% | viability, T/C (second compound 0.00316 µM, first compound 0.316 µM): 33.5% | viability, T/C (second compound 0.00316 µM, first compound 1 µM): 22.8% | viability, T/C (second compound 0.01 µM, first compound 0.00316 µM): 106% | viability, T/C (second compound 0.01 µM, first compound 0.01 µM): 90.3% | viability, T/C (second compound 0.01 µM, first compound 0.0316 µM): 78.2% | viability, T/C (second compound 0.01 µM, first compound 0.1 µM): 61.2% | viability, T/C (second compound 0.01 µM, first compound 0.316 µM): 34.5% | viability, T/C (second compound 0.01 µM, first compound 1 µM): 20.1% | viability, T/C (second compound 0.0316 µM, first compound 0.00316 µM): 92% | viability, T/C (second compound 0.0316 µM, first compound 0.01 µM): 94.4% | viability, T/C (second compound 0.0316 µM, first compound 0.0316 µM): 82.7% | viability, T/C (second compound 0.0316 µM, first compound 0.1 µM): 59.8% | viability, T/C (second compound 0.0316 µM, first compound 0.316 µM): 35% | viability, T/C (second compound 0.0316 µM, first compound 1 µM): 18.9% | viability, T/C (second compound 0.1 µM, first compound 0.00316 µM): 91.6% | viability, T/C (second compound 0.1 µM, first compound 0.01 µM): 96% | viability, T/C (second compound 0.1 µM, first compound 0.0316 µM): 86.5% | viability, T/C (second compound 0.1 µM, first compound 0.1 µM): 65.4% | viability, T/C (second compound 0.1 µM, first compound 0.316 µM): 38.1% | viability, T/C (second compound 0.1 µM, first compound 1 µM): 23.3% | viability, T/C (second compound 0.316 µM, first compound 0.00316 µM): 95.6% | viability, T/C (second compound 0.316 µM, first compound 0.01 µM): 97% | viability, T/C (second compound 0.316 µM, first compound 0.0316 µM): 84.5% | viability, T/C (second compound 0.316 µM, first compound 0.1 µM): 58.6% | viability, T/C (second compound 0.316 µM, first compound 0.316 µM): 34% | viability, T/C (second compound 0.316 µM, first compound 1 µM): 21.6% | viability, T/C (second compound 1 µM, first compound 0.00316 µM): 97.3% | viability, T/C (second compound 1 µM, first compound 0.01 µM): 96.8% | viability, T/C (second compound 1 µM, first compound 0.0316 µM): 86.1% | viability, T/C (second compound 1 µM, first compound 0.1 µM): 61.5% | viability, T/C (second compound 1 µM, first compound 0.316 µM): 26.7% | viability, T/C (second compound 1 µM, first compound 1 µM): 18.9%
